The source of these data is PubChem BioAssay (NCI).

Among the test systems are EKVX NSCLC; SR leukemia; HCT-15 colon; SK-MEL-5 melanoma; SK-MEL-28 melanoma; UACC-62 melanoma; KM12 colon; SF-295 CNS; MDA-N; NCI-H460 lung; SK-MEL-2 melanoma; HL-60(TB) leukemia.
Assay in all cases: NCI tumour cell line growth inhibition, 48 h

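Test compounds were applied to cells in 96-well plates for 48 hours at 5 doses. At the TGI there is no net growth.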 Where a SMILES comes first, the peptide text is derived from it. The star is where a group is joined. Cbz = O=C(OCc1ccccc1)*

Regarding `CN1CCCOC(c2ccc(Cl)cc2)O1` (stereo unspecified), the TGI in the assay with EKVX NSCLC, in the assay on SR leukemia, in the assay on HCT-15 colon, with SK-MEL-5 melanoma, in the assay with SK-MEL-28 melanoma and with UACC-62 melanoma was greater than 100 µM each time. For the same molecule, the TGI in the assay with KM12 colon, with SF-295 CNS, in the assay with MDA-N, in the assay with NCI-H460 lung and with SK-MEL-2 melanoma was greater than 100 µM throughout.

In the case of `C/C(=N\NC(=S)N1CCCC1)c1nc2ncccc2[nH]1`, the TGI is greater than 100 µM in the assay on SR leukemia; greater than 100 µM with HCT-15 colon; 2.93 µM in the assay with SK-MEL-5 melanoma; 28.2 µM in the assay on SK-MEL-28 melanoma; 11.2 µM in the assay with UACC-62 melanoma; 23.8 µM in the assay with KM12 colon. The TGI is 22.6 µM in the assay on SF-295 CNS; greater than 100 µM with MDA-N; 1.68 µM in the assay with NCI-H460 lung; 46.8 µM in the assay with SK-MEL-2 melanoma; greater than 100 µM in the assay with HL-60(TB) leukemia.

Consider `COCn1cnc2c(=O)nc(SC)n(-c3ccccc3)c21`, for which the TGI in the assay on EKVX NSCLC, with HCT-15 colon, in the assay with SK-MEL-5 melanoma, in the assay on UACC-62 melanoma, with KM12 colon and in the assay with SF-295 CNS was greater than 100 µM throughout. Besides, the TGI in the assay with MDA-N, in the assay on SK-MEL-2 melanoma and in the assay with HL-60(TB) leukemia was greater than 100 µM each time.

Consider `COc1cc2c(cc1O)NC(=O)[C@@H]1CCCN1C2=O`, for which the TGI in the assay with EKVX NSCLC, in the assay with SR leukemia, in the assay with HCT-15 colon, in the assay on SK-MEL-5 melanoma, in the assay on SK-MEL-28 melanoma and in the assay with UACC-62 melanoma was greater than 100 µM each time. The TGI in the assay with KM12 colon, with SF-295 CNS, in the assay on MDA-N, in the assay on NCI-H460 lung and with SK-MEL-2 melanoma was greater than 100 µM each time.

Regarding `CC1CC(Nc2ccc(Br)cc2)N(C(=O)c2ccc(Br)cc2)O1` (stereo unspecified), the TGI in the assay with EKVX NSCLC, in the assay on SR leukemia, in the assay on HCT-15 colon, with SK-MEL-5 melanoma, in the assay on SK-MEL-28 melanoma and in the assay on SF-295 CNS was greater than 10 µM throughout. Further, the TGI with MDA-N, with NCI-H460 lung, in the assay with SK-MEL-2 melanoma and in the assay on HL-60(TB) leukemia was greater than 10 µM in each case.

Turning to `CC(=O)OCC1OC(n2c(C)c(N=Nc3ccc(Cl)cc3)c(C)c(C#N)c2=S)C(OC(C)=O)C(OC(C)=O)C1OC(C)=O` (stereo unspecified), the TGI in the assay on SR leukemia, in the assay on HCT-15 colon, with SK-MEL-5 melanoma, with SK-MEL-28 melanoma, in the assay with UACC-62 melanoma and in the assay with KM12 colon was greater than 100 µM in each case. In addition, the TGI was 76.5 µM in the assay on SF-295 CNS; greater than 100 µM in the assay with MDA-N; greater than 100 µM in the assay on NCI-H460 lung; 92.1 µM in the assay on SK-MEL-2 melanoma; greater than 100 µM with HL-60(TB) leukemia.

On to `O=C1/C(=C\c2cccc(Oc3ccccc3)c2)S(=O)(=O)C(c2ccccc2)N1c1cccc(Cl)c1` (stereo unspecified), for which the TGI with EKVX NSCLC, in the assay on SR leukemia, in the assay on HCT-15 colon, in the assay with SK-MEL-5 melanoma, in the assay on SK-MEL-28 melanoma and with UACC-62 melanoma was greater than 100 µM in each case. Moreover, the TGI with KM12 colon, in the assay on SF-295 CNS, in the assay with MDA-N, in the assay on NCI-H460 lung and in the assay with SK-MEL-2 melanoma was greater than 100 µM each time.

As to `COc1ccc(C2(CC(C)C)CCN(S(=O)(=O)c3ccc(C)cc3)C2)cc1OC` (stereo unspecified), the TGI is greater than 100 µM with EKVX NSCLC; greater than 100 µM in the assay with SR leukemia; greater than 100 µM with HCT-15 colon; 32.6 µM with SK-MEL-5 melanoma; greater than 100 µM with SK-MEL-28 melanoma; greater than 100 µM with UACC-62 melanoma. In addition, the TGI with KM12 colon was 68 µM; in the assay on SF-295 CNS it was greater than 100 µM; in the assay with MDA-N, greater than 100 µM; in the assay with NCI-H460 lung, greater than 100 µM; in the assay on SK-MEL-2 melanoma, 47.2 µM.

On to `Cc1ccc2c(c1)CC1(Cc3cccc(C)c3C1=O)C2=O` (stereo unspecified), for which the TGI in the assay with EKVX NSCLC, with SR leukemia, in the assay with HCT-15 colon, with SK-MEL-5 melanoma, in the assay on SK-MEL-28 melanoma and with UACC-62 melanoma was greater than 100 µM in each case. Besides, the TGI in the assay with SF-295 CNS is greater than 100 µM; in the assay on MDA-N, greater than 10 µM; in the assay on NCI-H460 lung, greater than 100 µM; in the assay on HL-60(TB) leukemia, greater than 100 µM.

For the molecule `O=c1cc(NNc2cccc(Cl)c2)[nH]c(=O)[nH]1`, the TGI was greater than 100 µM with SR leukemia; 31.4 µM in the assay with HCT-15 colon; greater than 100 µM in the assay with SK-MEL-5 melanoma; greater than 100 µM in the assay on SK-MEL-28 melanoma; greater than 100 µM in the assay with UACC-62 melanoma; greater than 100 µM in the assay on KM12 colon. Also, the TGI was greater than 100 µM in the assay on MDA-N, greater than 100 µM with NCI-H460 lung, greater than 100 µM in the assay on SK-MEL-2 melanoma and 43.9 µM in the assay with HL-60(TB) leukemia.

For the molecule `CCOC(=O)CCC(NC(=O)OCc1ccccc1)C(=O)NC(CCC(=O)OCC)C(=O)OCC` (stereo unspecified) (Cbz-Glu(OEt)-Glu(OEt)-OEt; configuration not given here), the TGI in the assay on EKVX NSCLC, with SR leukemia, in the assay with HCT-15 colon, in the assay with SK-MEL-5 melanoma, in the assay on SK-MEL-28 melanoma and in the assay on UACC-62 melanoma was greater than 100 µM throughout. Also, the TGI in the assay on KM12 colon, in the assay with SF-295 CNS, with MDA-N, in the assay with NCI-H460 lung and with SK-MEL-2 melanoma was greater than 100 µM throughout.

In the case of `Cn1nnnc1SC(F)(F)c1nc2ccccc2o1`, the TGI in the assay on SR leukemia, in the assay with HCT-15 colon, in the assay on SK-MEL-5 melanoma, with SK-MEL-28 melanoma, with UACC-62 melanoma and in the assay with KM12 colon was greater than 100 µM in each case. The TGI in the assay with SF-295 CNS, in the assay with MDA-N, in the assay with NCI-H460 lung and with SK-MEL-2 melanoma was greater than 100 µM each time.
